Tested on: MV-4-11 cells
Test: Gene expression microarray analysis (Affymetrix PrimeView) and GSEA
Format: cell-based, human
Design: RFU PODN (11730768_x_at) / Fold change /veh PODN (11730768_x_at) / RFU LINC00158 (11744669_a_at) / Fold change /veh LINC00158 (11744669_a_at) / RFU DUSP10 (11751237_a_at) / Fold change /veh DUSP10 (11751237_a_at) / RFU ID3 (11757404_x_at) / Fold change /veh ID3 (11757404_x_at) / RFU PLEKHG5 (11737974_s_at) / Fold change /veh PLEKHG5 (11737974_s_at) / RFU LRRC4B (11730491_at) / Fold change /veh LRRC4B (11730491_at) / RFU GIMAP4 (11747438_a_at) / Fold change /veh GIMAP4 (11747438_a_at) / RFU KRT8 (11758183_x_at) / Fold change /veh KRT8 (11758183_x_at) / RFU CNN1 (11734310_a_at) / Fold change /veh CNN1 (11734310_a_at) / RFU VPS37D (11726825_at) / Fold change /veh VPS37D (11726825_at) / RFU C10orf10 (11716522_x_at) / Fold change /veh C10orf10 (11716522_x_at) / RFU KIR2DL2 /// KIR2DL4 /// KIR2DL5A /// KIR2DL5B /// KIR2DS1 /// KIR2DS2 /// KIR2DS3 /// KIR2DS4 /// KIR3DL3 /// KIR3DL3 /// KIR3DS1 (11738374_at) / Fold change /veh KIR2DL2 /// KIR2DL4 /// KIR2DL5A /// KIR2DL5B /// KIR2DS1 /// KIR2DS2 /// KIR2DS3 /// KIR2DS4 /// KIR3DL3 /// KIR3DL3 /// KIR3DS1 (11738374_at) / RFU C1QL1 (11718748_at) / Fold change /veh C1QL1 (11718748_at) / RFU TMPRSS4 (11747572_a_at) / Fold change /veh TMPRSS4 (11747572_a_at) / RFU HAMP (11756126_x_at) / Fold change /veh HAMP (11756126_x_at) / RFU RNFT2 (11725882_a_at) / Fold change /veh RNFT2 (11725882_a_at) / RFU NR4A2 (11747474_a_at) / Fold change /veh NR4A2 (11747474_a_at) / RFU ABCC12 (11746883_a_at) / Fold change /veh ABCC12 (11746883_a_at) / RFU TMEM136 (11760407_x_at) / Fold change /veh TMEM136 (11760407_x_at) / RFU CLDN22 /// WWC2 (11732394_at) / Fold change /veh CLDN22 /// WWC2 (11732394_at) / RFU HLA-DPB1 (11760878_x_at) / Fold change /veh HLA-DPB1 (11760878_x_at) / RFU SPINT1 (11716480_a_at) / Fold change /veh SPINT1 (11716480_a_at) / RFU GAP43 (11754022_s_at) / Fold change /veh GAP43 (11754022_s_at) / RFU A4GNT (11735810_at) / Fold change /veh A4GNT (11735810_at) / RFU PRB3 (11715151_x_at) / Fold change /veh PRB3 (11715151_x_at) / RFU TUBB4B (11761932_at) / Fold change /veh TUBB4B (11761932_at) / RFU CAPN14 (11732068_a_at) / Fold change /veh CAPN14 (11732068_a_at) / RFU TMCC2 (11721928_a_at) / Fold change /veh TMCC2 (11721928_a_at) / RFU IRGQ (11745062_a_at) / Fold change /veh IRGQ (11745062_a_at) / RFU FAM174B (11720279_a_at) / Fold change /veh FAM174B (11720279_a_at) / RFU TMPRSS4 (11748680_a_at) / Fold change /veh TMPRSS4 (11748680_a_at) / RFU FAM212B (11763350_a_at) / Fold change /veh FAM212B (11763350_a_at) / RFU PLEKHG5 (11743358_a_at) / Fold change /veh PLEKHG5 (11743358_a_at) / RFU ZSCAN30 (11745921_a_at) / Fold change /veh ZSCAN30 (11745921_a_at) / RFU CMKLR1 (11741424_a_at) / Fold change /veh CMKLR1 (11741424_a_at) / RFU LOC101060620 /// MAPK8IP1 (11723275_at) / Fold change /veh LOC101060620 /// MAPK8IP1 (11723275_at) / RFU SPTSSB (11747773_x_at) / Fold change /veh SPTSSB (11747773_x_at) / RFU PRSS12 (11739890_at) / Fold change /veh PRSS12 (11739890_at) / RFU BIN1 (11741810_x_at) / Fold change /veh BIN1 (11741810_x_at) / RFU WNT11 (11732464_a_at) / Fold change /veh WNT11 (11732464_a_at) / RFU C10orf10 (11716521_a_at) / Fold change /veh C10orf10 (11716521_a_at) / RFU C5orf56 (11738089_at) / Fold change /veh C5orf56 (11738089_at) / RFU CYB561 (11721691_x_at) / Fold change /veh CYB561 (11721691_x_at) / RFU ANKRD19P (11752326_a_at) / Fold change /veh ANKRD19P (11752326_a_at) / RFU OR2T12 /// OR2T33 /// OR2T8 (11738714_s_at) / Fold change /veh OR2T12 /// OR2T33 /// OR2T8 (11738714_s_at) / RFU VCAN (11748164_a_at) / Fold change /veh VCAN (11748164_a_at) / RFU JSRP1 (11732532_at) / Fold change /veh JSRP1 (11732532_at) / RFU KRTAP10-11 (11738290_x_at) / Fold change /veh KRTAP10-11 (11738290_x_at) / RFU MYO3A (11730013_a_at) / Fold change /veh MYO3A (11730013_a_at) / RFU EBF3 (11725865_a_at) / Fold change /veh EBF3 (11725865_a_at) / RFU CAMK2N1 (11719241_x_at) / Fold change /veh CAMK2N1 (11719241_x_at) / RFU C5orf56 (11738088_a_at) / Fold change /veh C5orf56 (11738088_a_at) / RFU OLFML3 (11715873_a_at) / Fold change /veh OLFML3 (11715873_a_at) / RFU LOC100653217 /// NTM (11731650_a_at) / Fold change /veh LOC100653217 /// NTM (11731650_a_at) / RFU MAPK11 (11762145_a_at) / Fold change /veh MAPK11 (11762145_a_at) / RFU FIZ1 (11724087_x_at) / Fold change /veh FIZ1 (11724087_x_at) / RFU OASL (11726364_x_at) / Fold change /veh OASL (11726364_x_at) / RFU SOX15 (11748057_x_at) / Fold change /veh SOX15 (11748057_x_at) / RFU CD79A (11719716_a_at) / Fold change /veh CD79A (11719716_a_at) / RFU HIST1H1D (11736915_at) / Fold change /veh HIST1H1D (11736915_at) / RFU CASKIN2 (11723855_a_at) / Fold change /veh CASKIN2 (11723855_a_at) / RFU LOC730098 (11760151_x_at) / Fold change /veh LOC730098 (11760151_x_at) / RFU OR4N2 (11742367_at) / Fold change /veh OR4N2 (11742367_at) / RFU PRRT2 (11749266_a_at) / Fold change /veh PRRT2 (11749266_a_at) / RFU SNX32 (11753110_a_at) / Fold change /veh SNX32 (11753110_a_at) / RFU CDHR5 (11726645_a_at) / Fold change /veh CDHR5 (11726645_a_at) / RFU RCAN1 (11760418_a_at) / Fold change /veh RCAN1 (11760418_a_at) / RFU FAM167A (11723789_a_at) / Fold change /veh FAM167A (11723789_a_at) / RFU FAM26E (11764081_at) / Fold change /veh FAM26E (11764081_at) / RFU ISYNA1 (11749810_s_at) / Fold change /veh ISYNA1 (11749810_s_at) / RFU ACY1 (11761880_at) / Fold change /veh ACY1 (11761880_at) / RFU 11764098_at / Fold change /veh 11764098_at / RFU SAMD14 (11745864_x_at) / Fold change /veh SAMD14 (11745864_x_at) / RFU NPB (11741838_a_at) / Fold change /veh NPB (11741838_a_at) / RFU TMPRSS6 (11731388_a_at) / Fold change /veh TMPRSS6 (11731388_a_at) / RFU KRTAP10-2 (11738614_at) / Fold change /veh KRTAP10-2 (11738614_at) / RFU ARHGAP8 /// PRR5-ARHGAP8 (11727945_x_at) / Fold change /veh ARHGAP8 /// PRR5-ARHGAP8 (11727945_x_at) / RFU KRTAP5-7 /// NADSYN1 (11734609_at) / Fold change /veh KRTAP5-7 /// NADSYN1 (11734609_at) / RFU RASL12 (11751679_a_at) / Fold change /veh RASL12 (11751679_a_at) / RFU CDKN2B (11736163_a_at) / Fold change /veh CDKN2B (11736163_a_at) / RFU PRF1 (11729649_at) / Fold change /veh PRF1 (11729649_at) / RFU, ZNF638 /// ZNF638-IT1 / Fold change vs veh, ZNF638 /// ZNF638-IT1 / RFU, PANK3 / Fold change vs veh, PANK3 / RFU, SH3YL1 / Fold change vs veh, SH3YL1 / RFU, ZEB2 / Fold change vs veh, ZEB2 / RFU, NRIP1 / Fold change vs veh, NRIP1 / RFU, PTTG1IP / Fold change vs veh, PTTG1IP / RFU, CAPN2 / Fold change vs veh, CAPN2 / RFU, MED14 / Fold change vs veh, MED14 / RFU, SNORA58 / Fold change vs veh, SNORA58 / RFU, C1orf63 / Fold change vs veh, C1orf63 / RFU, LRRFIP1 / Fold change vs veh, LRRFIP1 / RFU, NDUFAF7 / Fold change vs veh, NDUFAF7 / RFU, SLC12A2 / Fold change vs veh, SLC12A2 / RFU, IBTK / Fold change vs veh, IBTK / RFU, ESF1 / Fold change vs veh, ESF1 / Fold change vs veh, TMEM50B / RFU, TAOK1 / Fold change vs veh, TAOK1 / RFU, ACBD3 / Fold change vs veh, ACBD3 / RFU, TMA16 / Fold change vs veh, TMA16 / RFU, RWDD3 / Fold change vs veh, RWDD3 / RFU, BCAT1 / Fold change vs veh, BCAT1 / RFU, EDEM3 / Fold change vs veh, EDEM3 / RFU, TMEM33 / Fold change vs veh, TMEM33 / RFU, WDR75 / Fold change vs veh, WDR75 / RFU, AHCTF1 / Fold change vs veh, AHCTF1 / RFU, TFRC / Fold change vs veh, TFRC / RFU, ZDHHC17 / Fold change vs veh, ZDHHC17 / RFU, NOM1 / Fold change vs veh, NOM1 / RFU, ARL8B / Fold change vs veh, ARL8B / RFU, ZBTB11 / Fold change vs veh, ZBTB11 / RFU, TAMM41 / Fold change vs veh, TAMM41 / RFU, KIAA1704 /// LOC100996395 / Fold change vs veh, KIAA1704 /// LOC100996395 / RFU, ING1 / Fold change vs veh, ING1 / RFU, TRMT61B / Fold change vs veh, TRMT61B / RFU, FUBP3 / Fold change vs veh, FUBP3 / RFU, TP53 / Fold change vs veh, TP53 / RFU, TNKS2 / Fold change vs veh, TNKS2 / RFU, ZFP14 / Fold change vs veh, ZFP14 / RFU, ACTR2 / Fold change vs veh, ACTR2 / RFU, PPP3R1 / Fold change vs veh, PPP3R1 / RFU, PIK3R1 / Fold change vs veh, PIK3R1 / RFU, HNRNPA1 / Fold change vs veh, HNRNPA1 / RFU, RNF170 / Fold change vs veh, RNF170 / RFU, ZNF28 / Fold change vs veh, ZNF28 / RFU, RNGTT / Fold change vs veh, RNGTT / RFU, OGT / Fold change vs veh, OGT / RFU, BRD1 / Fold change vs veh, BRD1 / RFU, MARS / Fold change vs veh, MARS / RFU, ZNF655 / Fold change vs veh, ZNF655 / RFU, FAHD1 / Fold change vs veh, FAHD1 / RFU, BDP1 / Fold change vs veh, BDP1 / RFU, LRRCC1 / Fold change vs veh, LRRCC1 / RFU, ARID1A / Fold change vs veh, ARID1A / RFU, ZNF146 / Fold change vs veh, ZNF146 / RFU, ZNF330 / Fold change vs veh, ZNF330 / RFU, GPN3 / Fold change vs veh, GPN3 / RFU, C9orf123 / Fold change vs veh, C9orf123 / RFU, N4BP2L2 / Fold change vs veh, N4BP2L2 / RFU, ARFIP1 / Fold change vs veh, ARFIP1 / RFU, FAM179B / Fold change vs veh, FAM179B / RFU, BCL10 / Fold change vs veh, BCL10 / RFU, UHRF1BP1L / Fold change vs veh, UHRF1BP1L / RFU, BET1 / Fold change vs veh, BET1 / RFU, CNOT2 / Fold change vs veh, CNOT2 / RFU, ZNF268 / Fold change vs veh, ZNF268 / Fold change vs veh, ZNF507 / RFU, DGCR2 / Fold change vs veh, DGCR2 / RFU, WDSUB1 / Fold change vs veh, WDSUB1 / Fold change vs veh, HSP90B1 /// MIR3652 / RFU, ADSS / Fold change vs veh, ADSS / RFU, GK / Fold change vs veh, GK / RFU, ZNF148 / Fold change vs veh, ZNF148 / RFU, TAF9 / Fold change vs veh, TAF9 / RFU, SLC1A5 / Fold change vs veh, SLC1A5 / RFU, SLMO2 / Fold change vs veh, SLMO2 / RFU, ABCC4 / Fold change vs veh, ABCC4 / RFU, LOC101060439 /// RAP1B / Fold change vs veh, LOC101060439 /// RAP1B / RFU, RFX7 / Fold change vs veh, RFX7 / RFU, GTPBP10 / Fold change vs veh, GTPBP10 / RFU, CNEP1R1 / Fold change vs veh, CNEP1R1 / RFU, BIVM-ERCC5 /// ERCC5 / Fold change vs veh, BIVM-ERCC5 /// ERCC5 / RFU, ILF3 / Fold change vs veh, ILF3 / RFU 11762660_at / Fold change /veh 11762660_at / RFU VCAN (11757783_s_at) / Fold change /veh VCAN (11757783_s_at) / RFU DDX43 (11728927_at) / Fold change /veh DDX43 (11728927_at) / RFU KRT8 (11758188_x_at) / Fold change /veh KRT8 (11758188_x_at) / RFU NKD1 (11759106_at) / Fold change /veh NKD1 (11759106_at) / RFU SRD5A1 (11742802_a_at) / Fold change /veh SRD5A1 (11742802_a_at) / RFU TPSAB1 /// TPSB2 (11721975_s_at) / Fold change /veh TPSAB1 /// TPSB2 (11721975_s_at) / RFU GSTM3 (11746129_a_at) / Fold change /veh GSTM3 (11746129_a_at) / RFU IL23R (11737362_x_at) / Fold change /veh IL23R (11737362_x_at) / RFU TMEM51 (11727254_a_at) / Fold change /veh TMEM51 (11727254_a_at) / RFU PIWIL2 (11732686_x_at) / Fold change /veh PIWIL2 (11732686_x_at) / RFU ORM1 (11744905_x_at) / Fold change /veh ORM1 (11744905_x_at) / RFU CCDC152 (11743942_at) / Fold change /veh CCDC152 (11743942_at) / RFU ECM1 (11717891_a_at) / Fold change /veh ECM1 (11717891_a_at) / RFU IL23R (11748794_a_at) / Fold change /veh IL23R (11748794_a_at) / RFU TNFAIP8L3 (11732012_x_at) / Fold change /veh TNFAIP8L3 (11732012_x_at) / RFU MBOAT4 (11741988_at) / Fold change /veh MBOAT4 (11741988_at) / RFU 11764193_at / Fold change /veh 11764193_at / RFU TMEM53 (11763286_at) / Fold change /veh TMEM53 (11763286_at) / RFU MAGEB2 (11727129_at) / Fold change /veh MAGEB2 (11727129_at) / RFU TMEM200A (11744735_a_at) / Fold change /veh TMEM200A (11744735_a_at) / RFU CCDC152 (11751479_a_at) / Fold change /veh CCDC152 (11751479_a_at) / RFU FAM211A (11726209_a_at) / Fold change /veh FAM211A (11726209_a_at) / RFU RGS16 (11746705_a_at) / Fold change /veh RGS16 (11746705_a_at) / RFU VCAN (11755009_s_at) / Fold change /veh VCAN (11755009_s_at) / RFU RHOB (11743442_s_at) / Fold change /veh RHOB (11743442_s_at) / RFU RGS16 (11720943_a_at) / Fold change /veh RGS16 (11720943_a_at) / RFU RGS16 (11720944_at) / Fold change /veh RGS16 (11720944_at) / RFU, VPS4B / Fold change vs veh, VPS4B / RFU, CREB1 / Fold change vs veh, CREB1 / RFU, DNAJC13 / Fold change vs veh, DNAJC13 / RFU, GNAQ / Fold change vs veh, GNAQ / RFU, CDK5R1 / Fold change vs veh, CDK5R1 / RFU, ZRANB3 / Fold change vs veh, ZRANB3 / RFU, CUL4A / Fold change vs veh, CUL4A / RFU, CCNY / Fold change vs veh, CCNY / RFU, UFL1 / Fold change vs veh, UFL1 / RFU, COG3 / Fold change vs veh, COG3 / RFU, DIAPH2 / Fold change vs veh, DIAPH2 / RFU, SKA2 / Fold change vs veh, SKA2 / RFU, AFF3 / Fold change vs veh, AFF3 / RFU, LMF1 / Fold change vs veh, LMF1 / RFU, IPO11 / Fold change vs veh, IPO11 / RFU, DFFB / Fold change vs veh, DFFB / RFU, FOXP1 / Fold change vs veh, FOXP1 / RFU, CARD8 / Fold change vs veh, CARD8 / RFU, STRN3 / Fold change vs veh, STRN3 / RFU, ADK / Fold change vs veh, ADK / RFU, RASSF2 / Fold change vs veh, RASSF2 / RFU, WIPF1 / Fold change vs veh, WIPF1 / RFU, LARP1B / Fold change vs veh, LARP1B / RFU, RASA1 / Fold change vs veh, RASA1 / RFU, RB1 / Fold change vs veh, RB1 / RFU, PPFIA1 / Fold change vs veh, PPFIA1 / RFU, MAT2A / Fold change vs veh, MAT2A / RFU, CCT5 / Fold change vs veh, CCT5 / RFU, WDR92 / Fold change vs veh, WDR92 / RFU, CUX1 / Fold change vs veh, CUX1 / RFU, TTC7A / Fold change vs veh, TTC7A / RFU, TMEM135 / Fold change vs veh, TMEM135 / RFU, DEPTOR / Fold change vs veh, DEPTOR / RFU, CPM / Fold change vs veh, CPM / RFU, DNAJB6 / Fold change vs veh, DNAJB6 / RFU, CACNA2D3 / Fold change vs veh, CACNA2D3 / RFU, DTX4 / Fold change vs veh, DTX4 / RFU, TFCP2 / Fold change vs veh, TFCP2 / RFU, GMCL1 /// GMCL1P1 / Fold change vs veh, GMCL1 /// GMCL1P1 / RFU, AEBP2 / Fold change vs veh, AEBP2 / RFU, SNHG1 /// SNORD22 /// SNORD25 /// SNORD26 /// SNORD27 /// SNORD28 /// SNORD29 /// SNORD31 / Fold change vs veh, SNHG1 /// SNORD22 /// SNORD25 /// SNORD26 /// SNORD27 /// SNORD28 /// SNORD29 /// SNORD31 / Fold change (Aza/veh), C12orf56 (ProbeSet 11735607_a_at) / Fold change (ACY-1035/veh), C12orf56 (ProbeSet 11735607_a_at) / Fold change (Aza/veh), FGFR1OP (ProbeSet 11751329_s_at) / Fold change (ACY-1035/veh), FGFR1OP (ProbeSet 11751329_s_at) / Fold change (Aza/veh), VPS36 (ProbeSet 11739960_a_at) / Fold change (ACY-1035/veh), VPS36 (ProbeSet 11739960_a_at) / RFU SYPL1 (11715823_x_at) / Fold change /veh SYPL1 (11715823_x_at) / RFU IGFBP7 (11715501_s_at) / Fold change /veh IGFBP7 (11715501_s_at) / RFU REEP3 (11722064_at) / Fold change /veh REEP3 (11722064_at) / RFU IGLL1 (11728026_x_at) / Fold change /veh IGLL1 (11728026_x_at): dose or concentration left out as unconfirmed
Details: MV-4-11 cells, 48 hours

Nc1ncn([C@@H]2O[C@H](CO)[C@@H](O)[C@H]2O)c(=O)n1 [azacitidine]
Fold change /veh GIMAP4 (11747438_a_at): 1.07
